In patent publication US8299111B2, “Compounds which modulate the CB2 receptor” (Boehringer Ingelheim International GmbH, priority 2006, dated 2012):

Molecular target: T1, human CB2R (Homo sapiens, UniProt P34972)
T1 construct: host or cells: CHO cells
Experiment: CB2R mediated modulation of cAMP synthesis
Type: cell-based
Details: found through the use of the above described assays (binding and cAMP); CHO cells expressing human CB2R, forskolin-stimulated cAMP
In short: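 CHO cells expressing human CB2R were treated for 30 min at 37 °C with compound in buffer containing 1 mM IBMX, 0.25% BSA and 10 uM forskolin. cAMP was measured after lysis. EC50 is the concentration giving 50% inhibition of forskolin-stimulated cAMP, scaled to the level set by 1 uM CP55940, fitted by four-parameter logistic.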

T1 sequence (P34972 whole entry): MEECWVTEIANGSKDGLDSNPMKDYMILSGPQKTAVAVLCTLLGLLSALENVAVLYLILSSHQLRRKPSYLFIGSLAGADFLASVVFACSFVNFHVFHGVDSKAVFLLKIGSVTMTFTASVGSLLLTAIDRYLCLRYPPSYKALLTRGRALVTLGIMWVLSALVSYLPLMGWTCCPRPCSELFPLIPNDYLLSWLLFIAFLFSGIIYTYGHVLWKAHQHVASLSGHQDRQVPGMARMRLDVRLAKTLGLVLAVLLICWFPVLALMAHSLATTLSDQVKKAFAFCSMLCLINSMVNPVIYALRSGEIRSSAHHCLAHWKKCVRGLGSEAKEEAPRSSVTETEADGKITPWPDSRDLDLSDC

SMILES	agonistic activity
CC(C)(C(=O)Nc1cccc2ccccc12)S(=O)(=O)c1ccc(Cl)cc1 [2-(4-Chloro-benzenesulfonyl)-2-methyl-N-naphthalen-1-yl-propionamide]	agonistic activity
CC(C)(C(=O)Nc1ccc2ccccc2c1)S(=O)(=O)c1ccc(Cl)cc1 [2-(4-Chloro-benzenesulfonyl)-2-methyl-N-naphthalen-2-yl-propionamide]	agonistic activity
CC(C)(C(=O)Nc1ccccn1)S(=O)(=O)c1ccc(Cl)cc1 [2-(4-Chloro-benzenesulfonyl)-2-methyl-N-pyridin-2-yl-propionamide]	agonistic activity
CC(C)(C(=O)Nc1cccnc1)S(=O)(=O)c1ccc(Cl)cc1 [2-(4-Chloro-benzenesulfonyl)-2-methyl-N-pyridin-3-yl-propionamide]	agonistic activity
CC(C)(C(=O)Nc1ccc2ccccc2n1)S(=O)(=O)c1ccc(Cl)cc1 [2-(4-Chloro-benzenesulfonyl)-2-methyl-N-quinolin-2-yl-propionamide]	agonistic activity
CC(C)(C(=O)Nc1cnc2ccccc2c1)S(=O)(=O)c1ccc(Cl)cc1 [2-(4-Chloro-benzenesulfonyl)-2-methyl-N-quinolin-3-yl-propionamide]	agonistic activity
Cc1c(-c2ccccc2)nn(C)c1NC(=O)C(C)(C)S(=O)(=O)c1ccc(Cl)cc1 [2-(4-Chloro-benzenesulfonyl)-N-(2,4-dimethyl-5-phenyl-2H-pyrazol-3-yl)-2-methyl-propionamide]	agonistic activity
Cc1cc(NC(=O)C(C)(C)S(=O)(=O)c2ccc(Cl)cc2)n(C)n1 [2-(4-Chloro-benzenesulfonyl)-N-(2,5-dimethyl-2H-pyrazol-3-yl)-2-methyl-propionamide]	agonistic activity
CC(C)(C(=O)Nc1ccccc1Cl)S(=O)(=O)c1ccc(Cl)cc1 [2-(4-Chloro-benzenesulfonyl)-N-(2-chloro-phenyl)-2-methyl-propionamide]	agonistic activity
Cc1noc(NC(=O)C(C)(C)S(=O)(=O)c2ccc(Cl)cc2)c1C [2-(4-Chloro-benzenesulfonyl)-N-(3,4-dimethyl-isoxazol-5-yl)-2-methyl-propionamide]	agonistic activity
CC(C)(C(=O)Nc1cccc(Cl)c1)S(=O)(=O)c1ccc(Cl)cc1 [2-(4-Chloro-benzenesulfonyl)-N-(3-chloro-phenyl)-2-methyl-propionamide]	agonistic activity
CC(C)c1cc(NC(=O)C(C)(C)S(=O)(=O)c2ccc(Cl)cc2)on1 [2-(4-Chloro-benzenesulfonyl)-N-(3-isopropyl-isoxazol-5-yl)-2-methyl-propionamide]	agonistic activity
Cc1onc(NC(=O)C(C)(C)S(=O)(=O)c2ccc(Cl)cc2)c1C [2-(4-Chloro-benzenesulfonyl)-N-(4,5-dimethyl-isoxazol-3-yl)-2-methyl-propionamide]	agonistic activity
Cc1nc(NC(=O)C(C)(C)S(=O)(=O)c2ccc(Cl)cc2)sc1C [2-(4-Chloro-benzenesulfonyl)-N-(4,5-dimethyl-thiazol-2-yl)-2-methyl-propionamide]	agonistic activity
CC(C)(C(=O)Nc1nc(-c2ccccc2)c(-c2ccccc2)s1)S(=O)(=O)c1ccc(Cl)cc1 [2-(4-Chloro-benzenesulfonyl)-N-(4,5-diphenyl-thiazol-2-yl)-2-methyl-propionamide]	agonistic activity
CC(C)(C(=O)Nc1ccc(Cl)cc1)S(=O)(=O)c1ccc(Cl)cc1 [2-(4-Chloro-benzenesulfonyl)-N-(4-chloro-phenyl)-2-methyl-propionamide]	agonistic activity
CC(C)(C(=O)Nc1nc(C2CCCCC2)cs1)S(=O)(=O)c1ccc(Cl)cc1 [2-(4-Chloro-benzenesulfonyl)-N-(4-cyclohexyl-thiazol-2-yl)-2-methyl-propionamide]	agonistic activity
CC(C)(C(=O)Nc1nc(C2CC2)cs1)S(=O)(=O)c1ccc(Cl)cc1 [2-(4-Chloro-benzenesulfonyl)-N-(4-cyclopropyl-thiazol-2-yl)-2-methyl-propionamide]	agonistic activity
CCc1c(C)noc1NC(=O)C(C)(C)S(=O)(=O)c1ccc(Cl)cc1 [2-(4-Chloro-benzenesulfonyl)-N-(4-ethyl-3-methyl-isoxazol-5-yl)-2-methyl-propionamide]	agonistic activity
CCc1ccnc(NC(=O)C(C)(C)S(=O)(=O)c2ccc(Cl)cc2)c1 [2-(4-Chloro-benzenesulfonyl)-N-(4-ethyl-pyridin-2-yl)-2-methyl-propionamide]	agonistic activity
CC(C)(C(=O)Nc1ncc(C#N)s1)S(=O)(=O)c1ccc(Cl)cc1 [2-(4-Chloro-benzenesulfonyl)-N-(5-cyano-thiazol-2-yl)-2-methyl-propionamide]	agonistic activity
Cn1nc(C2CCCCC2)cc1NC(=O)C(C)(C)S(=O)(=O)c1ccc(Cl)cc1 [2-(4-Chloro-benzenesulfonyl)-N-(5-cyclohexyl-2-methyl-2H-pyrazol-3-yl)-2-methyl-propionamide]	agonistic activity
Cn1nc(C2CCCC2)cc1NC(=O)C(C)(C)S(=O)(=O)c1ccc(Cl)cc1 [2-(4-Chloro-benzenesulfonyl)-N-(5-cyclopentyl-2-methyl-2H-pyrazol-3-yl)-2-methyl-propionamide]	agonistic activity
Cn1nc(C2CC2)cc1NC(=O)C(C)(C)S(=O)(=O)c1ccc(Cl)cc1 [2-(4-Chloro-benzenesulfonyl)-N-(5-cyclopropyl-2-methyl-2H-pyrazol-3-yl)-2-methyl-propionamide]	agonistic activity
CCc1sc(NC(=O)C(C)(C)S(=O)(=O)c2ccc(Cl)cc2)nc1-c1ccccc1 [2-(4-Chloro-benzenesulfonyl)-N-(5-ethyl-4-phenyl-thiazol-2-yl)-2-methyl-propionamide]	agonistic activity
CC(C)c1cc(NC(=O)C(C)(C)S(=O)(=O)c2ccc(Cl)cc2)n(C)n1 [2-(4-Chloro-benzenesulfonyl)-N-(5-isopropyl-2-methyl-2H-pyrazol-3-yl)-2-methyl-propionamide]	agonistic activity
CC(C)c1cnc(NC(=O)C(C)(C)S(=O)(=O)c2ccc(Cl)cc2)s1 [2-(4-Chloro-benzenesulfonyl)-N-(5-isopropyl-thiazol-2-yl)-2-methyl-propionamide]	agonistic activity
COc1ccc(NC(=O)C(C)(C)S(=O)(=O)c2ccc(Cl)cc2)cn1 [2-(4-Chloro-benzenesulfonyl)-N-(6-methoxy-pyridin-3-yl)-2-methyl-propionamide]	agonistic activity
CC(C)(C(=O)Nc1nc(-c2ccc(F)c(F)c2)cs1)S(=O)(=O)c1ccc(Cl)cc1 [2-(4-Chloro-benzenesulfonyl)-N-[4-(3,4-difluoro-phenyl)-thiazol-2-yl]-2-methyl-propionamide]	agonistic activity
CC(C)(C(=O)Nc1nc(-c2ccc(Cl)cc2)cs1)S(=O)(=O)c1ccc(Cl)cc1 [2-(4-Chloro-benzenesulfonyl)-N-[4-(4-chloro-phenyl)-thiazol-2-yl]-2-methyl-propionamide]	agonistic activity
